Results taken from the NIST ThermoML archive (doi:10.1021/je060148j).
Numbers after ± are expanded uncertainties.

Settings: Liquid, Closed cell (Static) method

COC [dimethyl ether]
Settings	vapor or sublimation pressure [kPa]
219.15 K	22.3 ± 2
221.13 K	25.2 ± 2
223.11 K	28.3 ± 2
224.88 K	31.5 ± 2
226.88 K	35.4 ± 2
228.85 K	39.5 ± 2
230.86 K	43.9 ± 2
232.86 K	48.7 ± 2
234.85 K	54.1 ± 2
236.85 K	59.8 ± 2
239.14 K	66.3 ± 2
241.14 K	73.2 ± 2
244.14 K	84 ± 2
247.13 K	96.1 ± 2
249.13 K	104.9 ± 2
251.14 K	114.3 ± 2
255.13 K	135.1 ± 2
257.12 K	146.6 ± 2
259.14 K	159 ± 2
261.13 K	171.8 ± 2
263.13 K	185.6 ± 2
265.13 K	199.8 ± 2
267.13 K	215.5 ± 2.1
269.13 K	231.8 ± 2.1
271.13 K	248.9 ± 2.1
273.13 K	266.8 ± 2.1
275.04 K	285.1 ± 2.1
277.02 K	305 ± 2.1
279.02 K	326.4 ± 2.1
281.02 K	348.8 ± 2.1
283.02 K	372.3 ± 2.1
285.01 K	397 ± 2.1
287 K	422.8 ± 2.2
288.99 K	449.8 ± 2.2
290.99 K	478.4 ± 2.2
293.08 K	508.9 ± 2.2
295.07 K	540 ± 2.2
297.07 K	573 ± 2.3
299.08 K	606.9 ± 2.3
301.11 K	643.1 ± 2.3
303.08 K	680.2 ± 2.4
305.07 K	718.4 ± 2.4
307.07 K	758.8 ± 2.4
309.06 K	800.7 ± 2.5
311.07 K	844.2 ± 2.5
313.06 K	889.5 ± 2.5
315.06 K	936.6 ± 2.6
317.04 K	985.3 ± 2.6
319.03 K	1036 ± 2.7
321.03 K	1088.7 ± 2.8
323.02 K	1143.3 ± 2.8
325.02 K	1200.6 ± 2.9
327.13 K	1262.3 ± 2.9
329.02 K	1319.9 ± 3
331.11 K	1385.3 ± 3.1
333.11 K	1450.6 ± 3.2
335.11 K	1518.8 ± 3.3
337.1 K	1588.4 ± 3.3
339.1 K	1660.3 ± 3.4
341.08 K	1733.3 ± 3.5
343.09 K	1811.3 ± 3.6
345.09 K	1891.2 ± 3.7
347.08 K	1972.8 ± 3.8
349.08 K	2057.4 ± 4
351.07 K	2144.3 ± 4.1
353.05 K	2232.7 ± 4.2
355.05 K	2326 ± 4.3
357.05 K	2421.9 ± 4.4
359.05 K	2520.3 ± 4.6
361.04 K	2621.5 ± 4.7
